Measured values reported in patent publication US8546608B2, “Proteasome inhibitors and methods of using the same” (Cephalon, Inc., priority 2003, dated 2013).
Where a name gives a salt, the structure may show the parent alone. Read-outs that look alike come from different tables or passages of the source.

What was measured:
[1] = biological target: T1, proteasome in Molt-4 cells (human leukemia) (Homo sapiens, UniProt P20618+P28074); assay type: cell-based
T1 sequence (P28074 60-263): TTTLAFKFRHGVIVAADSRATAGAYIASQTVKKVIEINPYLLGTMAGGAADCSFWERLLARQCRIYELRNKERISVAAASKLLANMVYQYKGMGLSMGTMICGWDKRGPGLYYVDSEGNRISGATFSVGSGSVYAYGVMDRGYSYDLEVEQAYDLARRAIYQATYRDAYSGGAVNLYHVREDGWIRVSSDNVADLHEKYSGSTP
T1 sequence (P20618 29-241): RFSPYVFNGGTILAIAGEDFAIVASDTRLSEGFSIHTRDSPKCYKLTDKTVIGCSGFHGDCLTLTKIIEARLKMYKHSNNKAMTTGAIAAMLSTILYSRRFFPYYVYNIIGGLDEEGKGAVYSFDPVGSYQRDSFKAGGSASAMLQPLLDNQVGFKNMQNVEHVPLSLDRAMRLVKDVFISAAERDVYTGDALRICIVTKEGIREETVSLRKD
Outline: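 Intact Molt-4 cells (6×10^6 cells/mL) in HEPES-buffered saline were preincubated with inhibitor 15 min at 37 °C, then given cell-permeable MeOSuc-FLF-AFC at 25 μM final.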

[2] = biological target: T2, 20S Human Erythrocyte Proteasome (HEP) (Homo sapiens, UniProt P20618+P28074); experiment: Chymotrypsin-like activity of 20S Human Erythrocyte Proteasome (HEP), IC50 determination; assay type: biochemical; conditions: assay of Example C, inhibition of HEP
T2 construct: 20S Human Erythrocyte Proteasome (HEP), purchased from Immatics Biotechnologies Inc; purchased Immatics Biotechnologies Inc., Tübingen, Germany; host or cells: human erythrocytes (natural source)
Outline: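 20S proteasome at 0.2 μg/mL (about 0.6 nM catalytic sites) in 20 mM Tris with 0.04% SDS, preincubated 15 min at 37° C with inhibitor before Suc-LLVY-AMC (100 μM final). AMC fluorescence read in the linear range; triplicates, IC50 from concentration series.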

[3] = assay of Example E, inhibition of MOLT4; read-out: MOLT4 (EC50)

| EC50 [1, 3] | IC50 [2] | Structure (SMILES) | EC50 ([1]; read-out: MOLT4 (EC50); assay of Example E, inhibition of MOLT4) |
| --- | --- | --- | --- |
| > 10000 nM | < 10 nM | CC(C)C[C@H](NC(=O)[C@H](CCCNC(=N)N[N+](=O)[O-])NC(=O)CSc1ncccn1)B(O)O [E.2.54, Boronic acid, [(1R)-1-[[(2S)-5-[[imino(nitroamino)methyl]amino]-2-[[2-(pyrimidin-2-ylsulfanyl)acetyl]amino]-1-oxopentyl]amino]-3-methylbutyl]] | – |
| 200 to 2000 nM | < 10 nM | CCCCCCCCCCCCCC(=O)N[C@@H](CCCNC(=N)N[N+](=O)[O-])C(=O)N[C@@H](CC(C)C)B1O[C@@H]2C[C@@H]3C[C@@H](C3(C)C)[C@]2(C)O1 [D.3.102, Tetradecanamide,N-[(1S)-1-[[[(1R)-1-[(3aS,4S,6S,7aR)-hexahydro-3a,5,5-trimethyl-4,6-methano-1,3,2-benzodioxaborol-2-yl]-3-methylbutyl]amino]carbonyl]-4-[[imino(nitroamino)methyl]amino]butyl]] | – |
| < 200 nM | < 10 nM | CCCCCCCCCCCNC(=O)N[C@H](C(=O)N[C@@H](CC(C)C)B(O)O)[C@@H](C)O [E.1.24, Boronic acid, [(1R)-1-[[(2S,3R)-3-hydroxy-2-[(undecylaminocarbonyl)amino]-1-oxobutyl]amino]-3-methylbutyl]] | – |
| > 10000 nM | < 10 nM | CC(C)C[C@H](NC(=O)[C@H](CCCNC(=N)N[N+](=O)[O-])NC(=O)Cc1ccsc1)B(O)O [E.2.62, Boronic acid, [(1R)-1-[[(2S)-5-[[imino(nitroamino)methyl]amino]-2-[(2-thiophen-3-yl-acetyl)amino]-1-oxopentyl]amino]-3-methylbutyl]] | – |
| > 10000 nM | < 10 nM | CC(=O)NCCCCCC(=O)N[C@@H](CCCNC(=N)N[N+](=O)[O-])C(=O)N[C@@H](CC(C)C)B(O)O [E.2.75, Boronic acid, [(1R)-1-[[(2S)-5-[[imino(nitroamino)methyl]amino]-2-[[6-(acetylamino)hexanoyl]amino]-1-oxopentyl]amino]-3-methylbutyl]] | – |
| < 200 nM | < 10 nM | CCCCCCCCCC(=O)N[C@@H](CNC(=O)c1ccc(C)cc1)C(=O)N[C@@H](CC(C)C)B1O[C@@H]2C[C@@H]3C[C@@H](C3(C)C)[C@]2(C)O1 [D.9, Decanamide, N-[(1S)-1-[[[(1R)-1-[(3aS,4S,6S,7aR)-hexahydro-3a,5,5-trimethyl-4,6-methano-1,3,2-benzodioxaborol-2-yl]-3-methylbutyl]amino]carbonyl]-2-[(4-methylbenzoyl)amino]ethyl]-] | – |
| < 200 nM | < 100 nM | CC(C)C[C@H](NC(=O)[C@@H](NS(=O)(=O)c1ccc2ccccc2c1)[C@@H](C)O)B1O[C@@H]2C[C@@H]3C[C@@H](C3(C)C)[C@]2(C)O1 [D.4.9, Naphthalene-2-sulfonamide, N-[(1S,2R)-1-[[[(1R)-1-[(3aS,4S,6S,7aR)-hexahydro-3a,5,5-trimethyl-4,6-methano-1,3,2-benzodioxaborol-2-yl]-3-methylbutyl]amino]carbonyl]-2-hydroxypropyl]] | – |
| 200 to 2000 nM | < 100 nM | COc1ccccc1/C=C\C(=O)N[C@@H](CCCNC(=N)N[N+](=O)[O-])C(=O)N[C@@H](CC(C)C)B1O[C@@H]2C[C@@H]3C[C@@H](C3(C)C)[C@]2(C)O1 [D.3.31, cis-3-(2-Methoxyphenyl)acrylamide,N-[(1S)-1-[[[(1R)-1-[(3aS,4S,6S,7aR)-hexahydro-3a,5,5-trimethyl-4,6-methano-1,3,2-benzodioxaborol-2-yl]-3-methylbutyl]amino]carbonyl]-4-[[imino(nitroamino)methyl]amino]butyl]] | – |
| < 200 nM | < 10 nM | CCCCCCCCCC(=O)N[C@@H](CNC(C)=O)C(=O)N[C@@H](CC(C)C)B(O)O [E.5.1, Boronic acid, [(1R)-1-[[(2S)-3-(acetylamino)-2-[(decanoylamino)]-1-oxopropyl]amino]-3-methylbutyl]] | – |
| 2000 to 10000 nM | < 10 nM | CC(C)C[C@H](NC(=O)[C@H](CCCNC(=N)N[N+](=O)[O-])NC(=O)CCCCc1ccc(F)cc1)B(O)O [D.7.20, Boronic acid, [(1R)-1-[[(2S)-5-[[imino(nitroamino)methyl]amino]-2-[[5-(4-fluorophenyl)pentanoyl]amino]-1-oxopentyl]amino]-3-methylbutyl]] | – |
| < 200 nM | < 10 nM | CC(C)C[C@H](NC(=O)[C@H](CCCNC(=N)N[N+](=O)[O-])NC(=O)CCCCCCC(=O)c1ccccc1)B1O[C@@H]2C[C@@H]3C[C@@H](C3(C)C)[C@]2(C)O1 [D.3.125, 8-Oxo-8-phenyloctanamide,N-[(1S)-1-[[[(1R)-1-[(3aS,4S,6S,7aR)-hexahydro-3a,5,5-trimethyl-4,6-methano-l,3,2-benzodioxaborol-2-yl]-3-methylbutyl]amino]carbonyl]-4-[[imino(nitroamino)methyl]amino]butyl]] | – |
| < 200 nM | < 10 nM | Cc1ccc(OCC(=O)N[C@H](C(=O)N[C@@H](CC(C)C)B2O[C@@H]3C[C@@H]4C[C@@H](C4(C)C)[C@]3(C)O2)[C@@H](C)O)cc1 [D.3.177, (4-Methylphenoxy)acetamide,N-[(1S,2R)-1-[[[(1R)-1-[(3aS,4S,6S,7aR)-hexahydro-3a,5,5-trimethyl-4,6-methano-1,3,2-benzodioxaborol-2-yl]-3-methylbutyl]amino]carbonyl]-2-hydroxypropyl]] | – |
| < 200 nM | < 10 nM | CCCCCCCCCCCC(=O)N[C@@H](CCCNC(=N)N[N+](=O)[O-])C(=O)N[C@@H](CC(C)C)B(O)O [E.2.12, Boronic acid, [(1R)-1-[[(2S)-5-[[imino(nitroamino)methyl]amino]-2-[(dodecanoyl)amino]-1-oxopentyl]amino]-3-methylbutyl]] | – |
| 200 to 2000 nM | < 10 nM | CC(C)C[C@H](NC(=O)[C@H](CCCNC(=N)N[N+](=O)[O-])NC(=O)CCCNC(=O)OCC1c2ccccc2-c2ccccc21)B(O)O [D.7.38, Boronic acid, [(1R)-1-[[(2S)-5-[[imino(nitroamino)methyl]amino]-2-[[[[[(9H-fluoren-9-yl)methoxy]carbonyl]amino]butanoyl]amino]-1-oxopentyl]amino]-3-methylbutyl]] | – |
| 200 to 2000 nM | < 100 nM | CC(C)C[C@H](NC(=O)[C@H](CCCNC(=N)N[N+](=O)[O-])NC(=O)c1cnccn1)B1O[C@@H]2C[C@@H]3C[C@@H](C3(C)C)[C@]2(C)O1 [D.1.2] | – |
| 2000 to 10000 nM | < 10 nM | CCCCC(C)(C)C(=O)N[C@@H](CCCNC(=N)N[N+](=O)[O-])C(=O)N[C@@H](CC(C)C)B(O)O [D.7.21, Boronic acid, [(1R)-1-[[(2S)-5-[[imino(nitroamino)methyl]amino]-2-[(2,2-dimethylhexanoyl)amino]-1-oxopentyl]amino]-3-methylbutyl]] | – |
| > 10000 nM | < 10 nM | CC[C@@H](C(=O)N[C@@H](CCCNC(=N)N[N+](=O)[O-])C(=O)N[C@@H](CC(C)C)B(O)O)c1ccccc1 [E.2.4, Boronic acid, [(1R)-1-[[(2S)-5-[[imino(nitroamino)methyl]amino]-2-[((2R)-2-phenylbutanoyl)amino]-1-oxopentyl]amino]-3-methylbutyl]] | – |

| Structure (SMILES) | EC50 [1, 3] | IC50 [2] | EC50 ([1]; read-out: MOLT4 (EC50); assay of Example E, inhibition of MOLT4) |
| --- | --- | --- | --- |
| CC(C)C[C@H](NC(=O)[C@@H](NC(=O)c1cccc(-c2cccnc2)c1)[C@@H](C)O)B(O)O [E.3.9, Boronic acid, [(1R)-1-[[(2S,3R)-3-hydroxy-2-[(3-pyridin-3-yl-benzoyl)amino]-1-oxobutyl]amino]-3-methylbutyl], hydrochloride salt] | – | < 10 nM | < 200 nM |
